Test results published in patent publication EP4682141A1, “TRICYCLIC COMPOUND” (ONO Pharmaceutical Co., Ltd., priority 2023, dated 2024).
Each block holds one compound with its values, some of them ahead of it.

Experiments:
EP1 = target: T1, EP1 (Homo sapiens, UniProt P34995); assay: agonist activity on human EP1 receptor (intracellular calcium concentration, EP1-CHO cells); assay type: cell-based
T1 construct: expressed in transfected cells; host or cells: CHO (EP1-CHO)
T1 sequence (P34995 1-402): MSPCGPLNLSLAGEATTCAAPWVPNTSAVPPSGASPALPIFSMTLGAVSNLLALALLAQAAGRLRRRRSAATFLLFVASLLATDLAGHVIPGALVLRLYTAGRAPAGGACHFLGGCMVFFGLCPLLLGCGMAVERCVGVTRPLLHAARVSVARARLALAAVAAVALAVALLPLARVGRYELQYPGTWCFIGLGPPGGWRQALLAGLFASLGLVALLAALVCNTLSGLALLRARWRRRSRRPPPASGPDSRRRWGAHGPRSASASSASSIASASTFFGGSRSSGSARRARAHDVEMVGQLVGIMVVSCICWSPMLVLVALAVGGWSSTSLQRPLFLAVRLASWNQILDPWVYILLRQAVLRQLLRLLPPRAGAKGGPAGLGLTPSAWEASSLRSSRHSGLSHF
Description: Using CHO cells (EP1-CHO, EP2-CHO, EP3-Chem1, EP4-CHO and IP-CHO) on which various human prostanoid receptors were forcibly expressed, the agonist activity of the test compound on the various prostanoid receptors was examined using the intracellular calcium concentration for EP1 and EP3, and the intracellular cyclic AMP (hereinafter, abbreviated as cAMP) production amount for EP2, EP4 and IP as indices.
The test compound and control substances (PGE2 and iloprost) were dissolved in dimethyl sulfoxide (DMSO) to prepare a 10 mmol/L solution. The prepared 10 mmol/L solution was thawed at the time of use, serially diluted using DMSO, and diluted with a buffer solution 1 for measurement (Hank's balanced salt solution (Thermofischer scientific) containing 1 w/v% human serum albumin (Sigma), 2 µmol/L indomethacin (Sigma), 2.5 mmol/L probenecid, and 10 mmol/L HEPES-NaOH (pH7.4)) or a buffer solution 2 for measurement (D-PBS (Nacalai Tesque) containing 0.1 w/v% human serum albumin, 2 µmol/L diclofenac (Sigma), and 1 mmol/L 3-isobutyl-1-methylxanthine (Sigma)) to perform experiments.
The intracellular calcium concentration was measured using Calcium 6 Assay Kit (Molecular Devices). On the day before the measurement, EP1-CHO and EP3-Chem 1 were obtained by thawing the frozen cells, suspended using Ham's F-12 medium (Thermofischer scientific) containing inactivated (56°C, 30 min) 9.8 vol% FBS (Thermofischer scientific) and penicillin-streptomycin (Nacalai Tesque), seeded into a 96 well UV plate to 1.0×10^5 cells per well, and static cultured at 37°C in the presence of 5%CO2. On the day of the measurement, the medium was removed, followed by addition of 120 µL of the Calcium indication solution dissolved in the buffer solution 1 for measurement and incubation at room temperature under light-shielding for about 1 hour. After 1 hour incubation, the 96 well UV plates were set in a fluorescence spectrophotometer (FDSS-7000, Hamamatsu Photonics) to measure the intracellular calcium concentration. Thirty microliters of the buffer solution 1 for measurement containing various concentrations of agonists were added, and the mixture was reacted. The intracellular calcium concentration was measured by irradiating the cells with 480 nm excitation light and measuring the fluorescence intensity at 540 nm.

[1] = system: rat renal ischemia reperfusion (IR) model; assay: in vivo drug efficacy in rat renal ischemia reperfusion (IR) model; design: species or system Crl : CD (SD) rats
Description: The effect of the present compound on renal IR damage was evaluated using male rats.
Male Crl : CD (SD) rats aged 3 or 4 weeks were purchased from Charles River Laboratories Japan, and subjected to experiments. Animals were fed ad libitum with FR-2 (Funabashi Farm) at the time of arrival and with solid feed CE-2 (CLEA Japan) for one week before single kidney removal, and watered ad libitum.
After acclimation breeding, the right kidney was removed about 7 days before renal IR treatment. Specifically, the rats were allowed to inhale isoflurane (Mylan) for anesthesia, and administered buprenorphine (Otsuka Pharmaceutical) as an analgesic at 0.01 mg/kg. The right back was incised, the right kidney was removed, and then the incision was sutured.
Renal IR treatment was performed about 7 days after single kidney removal. Specifically, rats were anesthetized by intraperitoneal administration of sodium pentobarbital (Tokyo Chemical Industry) at a dose of 50 mg/kg, and administered buprenorphine as an analgesic at 0.01 mg/kg. The left abdomen was incised, and the renal artery and vein was sandwiched with a clamp (Natsume Seisakusho) to cause ischemia for 35 minutes. During ischemia, the rats were allowed to lie on a heat-retaining plate set at 38°C, and after 35 minutes, the clamp was removed for reperfusion. After visually confirming that blood flow to the kidney was recovered, the incision was sutured. The sham group was a sham-operated group in which neither ischemia nor reperfusion treatment was performed.
Animals were distributed on the day before renal IR treatment such that differences in the mean of the body weight in each group were not biased, and assigned animal numbers.
The compound of Example 7 (test substance) and physiological saline (Otsuka Pharmaceutical) as a vehicle were subcutaneously administered at 5 mL/kg using an injection needle 5 minutes before renal IR treatment. Saline was administered to the sham group in the same test. The administration dose is described in Table 16.
Specifically, the rats were allowed to inhale isoflurane for anesthesia on the day before renal IR treatment, and administered buprenorphine as an analgesic at 0.01 mg/kg. […] The incision was bonded with Dermabond Advanced (Johnson & Johnson). A pump containing a vehicle was also embedded in the sham group in the same test. The administration dose is described in Table 16.
After renal IR treatment, blood was collected through the tail vein on Day1, Day2, and Day3 to obtain serum. In addition, after renal IR treatment, rats were euthanized by exsanguination through the abdominal aorta under isoflurane anesthesia on Day3.
The respective concentrations of serum creatinine (sCre) and blood urea nitrogen (BUN) were measured using an automatic analyzer 7180 (Hitachi High-Tech).

[2] = IR 1.0 µg/kg/min, subcutaneous osmotic pump, day 1
[3] = IR 1.0 µg/kg/min, subcutaneous osmotic pump, day 2
[4] = IR 3.0 µg/kg/min, subcutaneous osmotic pump, day 1
[5] = IR 3.0 µg/kg/min, subcutaneous osmotic pump, day 2
[6] = IR 0.1 mg/kg subcutaneous 5 minutes before renal IR treatment, day 1
[7] = IR 0.1 mg/kg subcutaneous 5 minutes before renal IR treatment, day 2
[8] = IR 0.1 mg/kg subcutaneous 5 minutes before renal IR treatment, day 3
[9] = IR 1.0 mg/kg subcutaneous 5 minutes before renal IR treatment, day 1
[10] = IR 1.0 mg/kg subcutaneous 5 minutes before renal IR treatment, day 2
[11] = IR 1.0 mg/kg subcutaneous 5 minutes before renal IR treatment, day 3

EC50 (EP1): > 10 µM
SMILES: O=C(O)c1ccc2c(c1Cl)O[C@H]1CC[C@H](/C=C/C(O)C3(c4ccccc4)COC3)[C@H]1CC2 (stereo partly drawn) [Example 26-21, (1R,3aS,10aR)-5-chloro-1-[(1E,3ξ)-3-hydroxy-3-(3-phenyl-3-oxetanyl)-1-propen-1-yl]-2,3,3a,9,10,10a-hexahydro-1H-benzo[b]cyclopenta[f]oxepine-6-carboxylic acid]

EC50 (EP1): > 10 µM
SMILES: O=C(O)c1ccc2c(c1Cl)O[C@H]1CC[C@H](/C=C/C(O)C3(c4ccccc4F)CCC3)[C@H]1CC2 (stereo partly drawn) [Example 26-17, (1R,3aS,10aR)-5-chloro-1-{(1E,3ξ)-3-[1-(2-fluorophenyl)cyclobutyl]-3-hydroxy-1-propen-1-yl}-2,3,3a,9,10,10a-hexahydro-1H-benzo[b]cyclopenta[f]oxepine-6-carboxylic acid]

EC50 (EP1): 7.3 µM
SMILES: CC(c1ccccc1F)C(O)/C=C/[C@@H]1[C@H]2CCc3ccc(C(=O)O)c(F)c3O[C@H]2C[C@H]1O (stereo partly drawn) [Example 3, (1R,2R,3aS,10aR)-5-fluoro-1-[(1E)-4-(2-fluorophenyl)-3-hydroxy-1-penten-1-yl]-2-hydroxy-2,3,3a,9,10,10a-hexahydro-1H-benzo[b]cyclopenta[f]oxepine-6-carboxylic acid]

EC50 (EP1): > 10 µM
SMILES: O=C(O)c1ccc2c(c1F)O[C@H]1C[C@@H](F)[C@H](/C=C/C(O)C3(c4ccccc4)COC3)[C@H]1CC2 (stereo partly drawn) [Example 28-2, (1R,2R,3aS,10aR)-2,5-difluoro-1-[(1E,3ξ)-3-hydroxy-3-(3-phenyl-3-oxetanyl)-1-propen-1-yl]-2,3,3a,9,10,10a-hexahydro-1H-benzo[b]cyclopenta[f]oxepine-6-carboxylic acid]

More lines, now with the values behind:

SMILES: C=C(CCOC)C(O)/C=C/[C@H]1CC[C@@H]2Oc3c(ccc(C(=O)O)c3Cl)CC[C@@H]21 (stereo partly drawn) [Example 26-19, (1R,3aS,10aR)-5-chloro-1-[(1E,3ξ)-3-hydroxy-6-methoxy-4-methylene-1-hexen-1-yl]-2,3,3a,9,10,10a-hexahydro-1H-benzo[b]cyclopenta[f]oxepine-6-carboxylic acid]
EC50 (EP1): > 10 µM

SMILES: O=C(O)c1ccc2c(c1)O[C@H]1CC[C@H](/C=C/C(O)C3(c4ccccc4F)CCC3)[C@H]1CC2 (stereo partly drawn) [Example 26-9, (1R,3aS,10aR)-1-{(1E,3ξ)-3-[1-(2-fluorophenyl)cyclobutyl]-3-hydroxy-1-propen-1-yl}-2,3,3a,9,10,10a-hexahydro-1H-benzo[b]cyclopenta[f]oxepine-6-carboxylic acid]
EC50 (EP1): > 10 µM

SMILES: C[C@@H](c1ccc(F)cc1F)[C@H](O)/C=C/[C@@H]1[C@H]2CCc3ccc(C(=O)O)c(F)c3O[C@H]2C[C@H]1O [Example 1, (1R,2R,3aS,10aR)-1-[(1E,3R,4S)-4-(2,4-difluorophenyl)-3-hydroxy-1-penten-1-yl]-5-fluoro-2-hydroxy-2,3,3a,9,10,10a-hexahydro-1H-benzo[b]cyclopenta[f]oxepine-6-carboxylic acid]
EC50 (EP1): 3.5 µM

SMILES: CCCC[C@H](C)C(O)/C=C/[C@H]1OC[C@@H]2Oc3c(ccc(C(=O)O)c3C)CC[C@@H]21 (stereo partly drawn) [Example 41, (1R,3aR,10aR)-1-[(1E,3ξ,4S)-3-hydroxy-4-methyl-1-octen-1-yl]-5-methyl-1,3,3a,9,10,10a-hexahydrofuro[3,4-b][1]benzoxepine-6-carboxylic acid]
EC50 (EP1): > 10 µM

SMILES: O=C(O)c1ccc2c(c1)O[C@H]1C[C@@H](O)[C@H](/C=C/C(O)C3(c4ccc(F)cc4)CCC3)[C@H]1CC2 (stereo partly drawn) [Example 7-13, (1R,2R,3aS,10aR)-1-{(1E,3ξ)-3-[1-(4-fluorophenyl)cyclobutyl]-3-hydroxy-1-propen-1-yl}-2-hydroxy-2,3,3a,9,10,10a-hexahydro-1H-benzo[b]cyclopenta[f]oxepine-6-carboxylic acid]
EC50 (EP1): 6.3 µM

SMILES: CCCC[C@H](CC)C(O)/C=C/[C@H]1CC[C@@H]2Oc3c(ccc(C(=O)O)c3Cl)CC[C@@H]21 (stereo partly drawn) [Example 26-20, (1R,3aS,10aR)-5-chloro-1-[(1E,3ξ,4S)-4-ethyl-3-hydroxy-1-octen-1-yl]-2,3,3a,9,10,10a-hexahydro-1H-benzo[b]cyclopenta[f]oxepine-6-carboxylic acid]
EC50 (EP1): > 10 µM

SMILES: O=C(O)c1ccc2c(c1Cl)O[C@H]1C[C@@H](O)[C@H](/C=C/C(O)C(F)(F)c3c(F)cccc3F)[C@H]1CC2 (stereo partly drawn) [Example 8, (1R,2R,3aS,10aR)-5-chloro-1-[(1E,3ξ)-4-(2,6-difluorophenyl)-4,4-difluoro-3-hydroxy-1-buten-1-yl]-2-hydroxy-2,3,3a,9,10,10a-hexahydro-1H-benzo[b]cyclopenta[f]oxepine-6-carboxylic acid]
EC50 (EP1): 2.7 µM

SMILES: Cc1ccccc1C1(C(O)/C=C/[C@@H]2[C@H]3CCc4ccc(C(=O)O)c(F)c4O[C@H]3C[C@H]2O)CC1 (stereo partly drawn) [Example 5-2, (1R,2R,3aS,10aR)-5-fluoro-2-hydroxy-1-{(1E,3ξ)-3-hydroxy-3-[1-(2-methylphenyl)cyclopropyl]-1-propen-1-yl}-2,3,3a,9,10,10a-hexahydro-1H-benzo[b]cyclopenta[f]oxepine-6-carboxylic acid]
blood urea nitrogen (BUN) concentration mean [1, 2]: 75.5 | serum creatinine (sCre) concentration mean [1, 2]: 0.91 | blood urea nitrogen (BUN) concentration mean [1, 3]: 65.3 | serum creatinine (sCre) concentration mean [1, 3]: 0.62 | blood urea nitrogen (BUN) concentration mean [1, 4]: 63.4 | serum creatinine (sCre) concentration mean [1, 4]: 0.79 | blood urea nitrogen (BUN) concentration mean [1, 5]: 54.9 | serum creatinine (sCre) concentration mean [1, 5]: 0.50

SMILES: O=C(O)c1ccc2c(c1)O[C@H]1C[C@@H](O)[C@H](/C=C/[C@@H](O)C3(c4ccccc4)CC3)[C@H]1CC2 [Example 7, (1R,2R,3aS,10aR)-2-hydroxy-1-[(1E,3R)-3-hydroxy-3-(1-phenylcyclopropyl)-1-propen-1-yl]-2,3,3a,9,10,10a-hexahydro-1H-benzo[b]cyclopenta[f]oxepine-6-carboxylic acid]
blood urea nitrogen (BUN) concentration mean [1, 6]: 74.6 | serum creatinine (sCre) concentration mean [1, 6]: 1.08 | blood urea nitrogen (BUN) concentration mean [1, 7]: 58.7 | serum creatinine (sCre) concentration mean [1, 7]: 0.72 | blood urea nitrogen (BUN) concentration mean [1, 8]: 46.3 | serum creatinine (sCre) concentration mean [1, 8]: 0.52 | blood urea nitrogen (BUN) concentration mean [1, 9]: 73.6 | serum creatinine (sCre) concentration mean [1, 9]: 0.99 | blood urea nitrogen (BUN) concentration mean [1, 10]: 53.1 | serum creatinine (sCre) concentration mean [1, 10]: 0.62 | blood urea nitrogen (BUN) concentration mean [1, 11]: 39.7 | serum creatinine (sCre) concentration mean [1, 11]: 0.44
